Data taken from PMC3656107, “Polymorphisms in the F8 Gene and MHC-II Variants as Risk Factors for the Development of Inhibitory Anti-Factor VIII Antibodies during the Treatment of Hemophilia A: A Computational Assessment” (PLoS Computational Biology, 2013).

Key:
MHC-II DRB1*03:01 [1] = molecular target: T1, MHC-II DRB1*03:01 (Homo sapiens, UniProt P01903+P01911, A100K/A102G/A103R/A169T/F55Y/I96L/K41T/L162R/M171V/P40S/Q125H/Q178H/Q39Y/R42S/S66N/T106N/T262R/W38E/Y61H); assay: Cell-free REVEAL class II binding assay; details: signal of test peptide as percentage of allele-specific positive control peptide, fluorescence, conformation-specific monoclonal antibody
From the text: (§1) We used a proprietary high throughput, REVEAL binding assay (ProImmune, www.proimmune.com) to estimate the binding of individual test peptides to the following MHC-II variants: DRB1*03:01, DRB1*04:01, DRB1*07:01, DRB1*11:01, DRB1*15:01 and DRB1*15:03 [28]. Detection of a peptide binding to each MHC-II protein is based on the presence or absence of the native conformation of the MHC-peptide complex. The peptide-MHC-II complex is detected by an increase in a fluorescence signal due to the binding of a specific monoclonal antibody. Each test-peptide is given a score relative to a positive control peptide, which is a known T-cell epitope for that MHC-II molecule. The score is reported quantitatively as a percentage of the signal generated by the test peptide compared with the positive control peptide. Assay performance is evaluated by including in each set of measurements an intermediate control peptide which is known to bind the MHC-II molecule but with a lower affinity than the positive control peptide. Note that the positive control peptide used to determine the binding score is different from the positive control peptides depicted in the figures, which are known T-cell epitopes identified in the FVIII molecule.

MHC-II DRB1*04:01 [2] = molecular target: T2, MHC-II DRB1*04:01 (Homo sapiens, UniProt P01903+P01911, A100K/A169T/F76Y/I96L/K127E/L162R/M171V/N62H/P40V/Q125Y/R42H/S133A/S149N/S66Y/V115G/V209L/W38E); assay: Cell-free REVEAL class II binding assay; details: signal of test peptide as percentage of allele-specific positive control peptide, fluorescence, conformation-specific monoclonal antibody
From the text: as §1

MHC-II DRB1*07:01 [3] = molecular target: T3, MHC-II DRB1*07:01 (Homo sapiens, UniProt P01903+P01911, A100R/A102G/A103Q/D57E/D86V/E43K/F76Y/K127E/L162R/M171V/P40G/Q125H/Q99D/R33Q/R42Y/R54Q/S133A/S66F/T210M/V115G/Y107V/Y59L/Y89S); assay: Cell-free REVEAL class II binding assay; details: signal of test peptide as percentage of allele-specific positive control peptide, fluorescence, conformation-specific monoclonal antibody
From the text: as §1

MHC-II DRB1*11:01 [4] = molecular target: T4, MHC-II DRB1*11:01 (Homo sapiens, UniProt P01903+P01911, A100R/A169T/A87E/I96F/K41T/L162R/M171V/P40S/Q125H/Q178H/Q39Y/Q99D/R42S/S66Y/T262R/V115G/W38E); assay: Cell-free REVEAL class II binding assay; details: signal of test peptide as percentage of allele-specific positive control peptide, fluorescence, conformation-specific monoclonal antibody
From the text: as §1

MHC-II DRB1*15:01 [5] = molecular target: T5, MHC-II DRB1*15:01 (Homo sapiens, UniProt P01903+P01911); assay: Cell-free REVEAL class II binding assay; details: signal of test peptide as percentage of allele-specific positive control peptide, fluorescence, conformation-specific monoclonal antibody
T5 construct: purchased ProImmune
From the text: as §1

MHC-II DRB1*15:03 [6] = molecular target: T6, MHC-II DRB1*15:03 (Homo sapiens, UniProt P01903+P01911, Y59H); assay: Cell-free REVEAL class II binding assay; details: signal of test peptide as percentage of allele-specific positive control peptide, fluorescence, conformation-specific monoclonal antibody
T6 construct: purchased ProImmune
From the text: as §1

MHC-II DRB1*03:01 [7] = molecular target: T1, MHC-II DRB1*03:01; assay: Cell-free REVEAL class II stability assay; details: half-life of peptide-MHC-II complex (h, capped at 120) x Binding Score / 100, conformational ELISA
Experimental: (§2) We measured the half-life of each peptide-MHC-II complex using REVEAL peptide-MHC affinity assays developed by ProImmune Ltd. (Oxford, UK). On-rates of peptides were measured over a 96-hr period at 10°C. A unique positive control peptide was used for each MHC-II allele. Samples of assembling peptide-MHC complexes were taken at defined time points and snap-frozen in liquid nitrogen prior to analysis. Assembly of peptide-MHC complexes was detected using a conformational ELISA involving an anti-HLA antibody. On-rates were calculated by fitting data to a one-phase association curve: [drawing 1] To determine the off-rates of the peptides, samples of dissociating complexes were taken at defined time points and frozen in liquid nitrogen prior to analysis. Percent denaturation of peptide-MHC complexes was also detected using a conformational ELISA. Off-rates were calculated by fitting data to a one-phase dissociation curve: [drawing 2] On- and off-rate half-life values (t1/2) were calculated from the rate constant (k) using the following equation: [drawing 3] To obtain a normalized stability score, the half-life values were multiplied by the Binding Score (see above) and divided by 100.

MHC-II DRB1*04:01 [8] = molecular target: T2, MHC-II DRB1*04:01; assay: Cell-free REVEAL class II stability assay; details: half-life of peptide-MHC-II complex (h, capped at 120) x Binding Score / 100, conformational ELISA
Experimental: as §2

MHC-II DRB1*07:01 [9] = molecular target: T3, MHC-II DRB1*07:01; assay: Cell-free REVEAL class II stability assay; details: half-life of peptide-MHC-II complex (h, capped at 120) x Binding Score / 100, conformational ELISA
Experimental: as §2

MHC-II DRB1*11:01 [10] = molecular target: T4, MHC-II DRB1*11:01; assay: Cell-free REVEAL class II stability assay; details: half-life of peptide-MHC-II complex (h, capped at 120) x Binding Score / 100, conformational ELISA
Experimental: as §2

MHC-II DRB1*15:01 [11] = molecular target: T5, MHC-II DRB1*15:01; assay: Cell-free REVEAL class II stability assay; details: half-life of peptide-MHC-II complex (h, capped at 120) x Binding Score / 100, conformational ELISA
Experimental: as §2

MHC-II DRB1*15:03 [12] = molecular target: T6, MHC-II DRB1*15:03; assay: Cell-free REVEAL class II stability assay; details: half-life of peptide-MHC-II complex (h, capped at 120) x Binding Score / 100, conformational ELISA
Experimental: as §2

T1 sequence (P01903 26-254 limits assumed, other chains not shown): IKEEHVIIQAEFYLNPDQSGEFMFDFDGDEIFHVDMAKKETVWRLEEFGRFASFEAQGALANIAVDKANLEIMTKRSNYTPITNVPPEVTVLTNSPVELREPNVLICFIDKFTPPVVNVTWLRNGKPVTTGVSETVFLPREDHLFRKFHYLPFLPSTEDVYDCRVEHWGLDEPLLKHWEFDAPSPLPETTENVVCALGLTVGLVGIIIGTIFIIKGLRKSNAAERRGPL
T4 sequence (P01903 26-254 limits assumed, other chains not shown): as above
T6 sequence (P01903 26-254, other chains not shown): as the sequence (P01903 26-254 limits assumed, other chains not shown) above

| Sequence | Binding Score (MHC-II DRB1*03:01 [1]) [%] | Binding Score (MHC-II DRB1*04:01 [2]) [%] | Binding Score (MHC-II DRB1*07:01 [3]) [%] | Binding Score (MHC-II DRB1*11:01 [4]) [%] | Binding Score (MHC-II DRB1*15:01 [5]) [%] | Binding Score (MHC-II DRB1*15:03 [6]) [%] | Stability Index (MHC-II DRB1*03:01 [7]) | Stability Index (MHC-II DRB1*04:01 [8]) | Stability Index (MHC-II DRB1*07:01 [9]) | Stability Index (MHC-II DRB1*11:01 [10]) | Stability Index (MHC-II DRB1*15:01 [11]) | Stability Index (MHC-II DRB1*15:03 [12]) |
| --- | --- | --- | --- | --- | --- | --- | --- | --- | --- | --- | --- | --- |
| SYDGAYAPVLQDFRS [synthetic wild type FVIII 15 mer peptide, region of ns-SNP D1241E] | 1.7 | 0.4 | 0.0 | 0.1 | 0.0 | 0.0 | 0.1 | 0.0 | 0.0 | 0.0 | 0.0 | 0.0 |
| YSLDGKKWQTYRGNS [synthetic wild type FVIII 15 mer peptide] | 0.0 | 0.9 | 0.0 | 23.5 | 11.8 | 0.2 | 0.0 | 0.1 | 0.0 | 1.1 | 3.0 | 0.0 |
| QKFSSLYISQFIIMY [synthetic wild type FVIII 15 mer peptide] | 0.5 | 1.9 | 0.0 | 0.4 | 22.9 | 0.0 | 0.1 | 0.2 | 0.0 | 0.0 | 27.5 | 0.0 |
| SLHAVGVSYWKASEG [synthetic wild type FVIII 15 mer peptide] | 1.3 | 1.3 | 0.2 | 0.3 | 18.1 | 0.7 | 0.1 | 0.1 | 0.0 | 0.0 | 1.4 | 0.0 |
| SYWKASEGAEYDDQT [synthetic wild type FVIII 15 mer peptide] | 0.0 | 1.5 | 0.0 | 2.8 | 0.0 | 0.0 | 0.0 | 0.2 | 0.0 | 0.0 | 0.0 | 0.0 |
| DIEKTDPWFAHRTPM [synthetic wild type FVIII 15 mer peptide, region of ns-SNP R776G] | 0.0 | 7.6 | 0.0 | 7.3 | 2.6 | 0.1 | 0.0 | 0.4 | 0.0 | 0.2 | 0.2 | 0.0 |
| RSNAWRPQVNNPKEW [synthetic wild type FVIII 15 mer peptide] | 0.0 | 18.2 | 0.0 | 0.1 | 0.4 | 0.0 | 0.0 | 12.4 | 0.0 | 0.0 | 0.5 | 0.0 |
| VVNSLDPPLLTRYLR [synthetic wild type FVIII 15 mer peptide] | 2.7 | 1.2 | 0.0 | 0.2 | 95.8 | 2.2 | 0.4 | 0.1 | 0.0 | 0.0 | 7.8 | 0.1 |
| IARYIRLHPTHYSIR [synthetic wild type FVIII 15 mer peptide] | 1.0 | 61.3 | 0.0 | 150.5 | 3379.6 | 103.9 | 0.0 | 38.8 | 0.0 | 36.2 | 4055.5 | 124.6 |
| YIRLHPTHYSIRSTL [synthetic wild type FVIII 15 mer peptide] | 7.9 | 59.3 | 17.2 | 174.3 | 1195.7 | 234.7 | 2.4 | 61.0 | 20.6 | 30.2 | 1434.9 | 281.7 |
| LSTRQNVEGSYDGAY [synthetic wild type FVIII 15 mer peptide, region of ns-SNP D1241E] | 0.0 | 15.2 | 0.0 | 0.2 | 0.0 | 0.0 | 0.0 | 3.2 | 0.0 | 0.0 | 0.0 | 0.0 |
| DGAYAPVLQDFRSLN [synthetic wild type FVIII 15 mer peptide, region of ns-SNP D1241E] | 11.1 | 0.7 | 0.1 | 0.2 | 0.0 | 0.1 | 2.0 | 0.1 | 0.0 | 0.0 | 0.0 | 0.0 |
